Results taken from US20050197338A1, “Substituted pyrazole urea compounds for the treatment of inflammation” (priority 2003, published 2005).

Each compound was assayed against T1, human IKK-2 (rhIKK-2 homodimer) (Homo sapiens, UniProt O14920) (assay: IKK-2 Resin Enzyme Assay (Human IKK-2 Enzyme Assay)). Conditions: human IKK-2, resin enzyme assay; read-out: IC50 (μM) hIKK-2.
T1 construct: FLAG (DYKDDDDKD) (C); made in house; host or cells: insect cells (baculovirus, pFastBac)
T1 sequence (O14920 1-756): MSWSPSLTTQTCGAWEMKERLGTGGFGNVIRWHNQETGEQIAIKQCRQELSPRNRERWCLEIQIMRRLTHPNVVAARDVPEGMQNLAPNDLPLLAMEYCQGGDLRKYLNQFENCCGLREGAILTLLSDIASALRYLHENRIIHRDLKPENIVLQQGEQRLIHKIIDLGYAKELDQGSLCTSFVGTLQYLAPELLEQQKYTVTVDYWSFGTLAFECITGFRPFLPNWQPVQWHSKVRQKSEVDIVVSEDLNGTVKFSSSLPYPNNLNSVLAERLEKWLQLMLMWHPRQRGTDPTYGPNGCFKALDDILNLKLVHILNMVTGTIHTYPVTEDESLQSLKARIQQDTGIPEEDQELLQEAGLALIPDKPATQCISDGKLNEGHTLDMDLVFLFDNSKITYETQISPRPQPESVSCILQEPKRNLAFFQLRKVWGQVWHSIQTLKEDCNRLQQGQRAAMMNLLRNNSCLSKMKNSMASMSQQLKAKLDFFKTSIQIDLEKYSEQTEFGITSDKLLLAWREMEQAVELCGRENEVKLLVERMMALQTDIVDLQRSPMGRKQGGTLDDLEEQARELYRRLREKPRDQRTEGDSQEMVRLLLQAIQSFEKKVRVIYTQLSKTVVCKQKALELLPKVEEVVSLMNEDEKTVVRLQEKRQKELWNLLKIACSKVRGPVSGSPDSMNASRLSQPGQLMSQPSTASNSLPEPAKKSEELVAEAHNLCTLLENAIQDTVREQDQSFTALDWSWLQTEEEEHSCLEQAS
Type: biochemical
How it was run: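 C-terminally FLAG-tagged human IKK-2 homodimer, baculovirus-expressed in insect cells and anti-FLAG purified. Reaction mix: 5 μM biotinylated IκBα peptide (Ser32/Ser36 region), 1 μM ATP with [γ-33P]ATP, 2 mM MgCl2, 2 mM MnCl2, 10 mM NaF, 1 mM DTT, 25 mM HEPES pH 7.6. Incubated 30 min at 25 °C; IC50 derived.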

| SMILES | IC50 [µM] |
| --- | --- |
| NC(=O)Nc1cn(-c2ccc(-c3ccc(C(=O)NCc4ccccc4)cc3)cc2)nc1C(N)=O [Example 35, 4-[(aminocarbonyl)amino]-1-{4′-[(benzylamino)carbonyl]-1,1′-biphenyl-4-yl}-1H-pyrazole-3-carboxamide] | 1.33 |
| CCOc1cc(-n2cc(NC(N)=O)c(C(N)=O)n2)ccc1-c1cccc(O)c1 [Example 230, 4-[(aminocarbonyl)amino]-1-(2-ethoxy-3′-hydroxy-1,1′-biphenyl-4-yl)-1H-pyrazole-3-carboxamide] | 2.02 |
| CNC(=O)Nc1cn(-c2ccc(I)c(C)c2)nc1C(N)=O [Example 245, 1-(4-Iodo-3-methyl-phenyl)-4-(3-methyl-ureido)-1H-pyrazole-3-carboxylic acid amide] | 5.51 |
| NC(=O)Nc1cn(-c2cccc(/C=C/c3ccccc3)c2)nc1C(N)=O [Example 67, 4-[(aminocarbonyl)amino]-1-{3-[(E)-2-phenylvinyl]phenyl}-1H-pyrazole-3-carboxamide] | 5.24 |
| CCOc1cc(-n2cc(NC(N)=O)c(C(N)=O)n2)ccc1-c1ccccc1OCC#N [Example 236, 4-[(aminocarbonyl)amino]-1-[2′-(cyanomethoxy)-2-ethoxy-1,1′-biphenyl-4-yl]-1H-pyrazole-3-carboxamide] | 3.05 |
| CCCNC(=O)c1ccc(-c2ccc(-n3cc(NC(N)=O)c(C(N)=O)n3)cc2)cc1 [Example 146, 4-[(aminocarbonyl)amino]-1-{4′-[(propylamino)carbonyl]-1,1′-biphenyl-4-yl}-1H-pyrazole-3-carboxamide] | 6.28 |
| NC(=O)Nc1cn(-c2ccc(-c3ccc(C(N)=O)cc3)cc2)nc1C(N)=O [Example 149, 4-[(aminocarbonyl)amino]-1-[4′-(aminocarbonyl)-1,1′-biphenyl-4-yl]-1H-pyrazole-3-carboxamide] | 0.05 |
| NC(=O)Nc1cn(-c2cccc(-c3ccc(F)cc3)c2)nc1C(N)=O [Example 42, 4-[(aminocarbonyl)amino]-1-(4′-fluoro-1,1′-biphenyl-3-yl)-1H-pyrazole-3-carboxamide] | 9.22 |
| CNC(=O)c1cccc(-c2cccc(-n3cc(NC(N)=O)c(C(N)=O)n3)c2)c1 [Example 83, 4-[(aminocarbonyl)amino]-1-{3′-[(methylamino)carbonyl]-1,1′-biphenyl-3-yl}-1H-pyrazole-3-carboxamide] | 1.29 |
| N#CCOc1cccc(-c2ccc(-n3cc(NC(N)=O)c(C(N)=O)n3)cc2C(F)(F)F)c1 [Example 237, 4-[(aminocarbonyl)amino]-1-[3′-(cyanomethoxy)-2-(trifluoromethyl)-1,1′-biphenyl-4-yl]-1H-pyrazole-3-carboxamide] | 3.9 |
| N#CCOc1ccccc1-c1ccc(-n2cc(NC(N)=O)c(C(N)=O)n2)cc1C(F)(F)F [Example 238, 4-[(aminocarbonyl)amino]-1-[2′-(cyanomethoxy)-2-(trifluoromethyl)-1,1′-biphenyl-4-yl]-1H-pyrazole-3-carboxamide] | 1.11 |
| CCCNC(=O)c1ccc(-c2cccc(-n3cc(NC(N)=O)c(C(N)=O)n3)c2)cc1 [Example 75, 4-[(aminocarbonyl)amino]-1-{4′-[(propylamino)carbonyl]-1,1′-biphenyl-3-yl}-1H-pyrazole-3-carboxamide] | 0.48 |
| CSc1cccc(-c2ccc(-n3cc(C(N)=O)c(NC(N)=O)n3)cc2)c1 [Example 118] | 3.07 |
| NC(=O)Nc1cn(-c2cccc(-c3ccc(C(=O)NCC(=O)O)cc3)c2)nc1C(N)=O [Example 85, N-[(3′-{3-(aminocarbonyl)-4-[(aminocarbonyl)amino]-1H-pyrazol-1-yl}-1,1′-biphenyl-4-yl)carbonyl]glycine] | 0.58 |
| Cc1cc(-n2cc(NC(N)=O)c(C(N)=O)n2)ccc1-c1ccc(F)cc1OCC(N)=O [Example 296, 1-(2′-carbamoylmethoxy-4′-fluoro-2-methyl-biphenyl-4-yl)-4-ureido-1H-pyrazole-3-carboxylic acid amide] | 0.656 |
| NC(=O)Nc1cn(-c2ccc(-c3ccc(F)cc3O)c(F)c2)nc1C(N)=O [Example 262, 4-[(aminocarbonyl)amino]-1-(2,4′-difluoro-2′-hydroxy-1,1′-biphenyl-4-yl)-1H-pyrazole-3-carboxamide] | 0.842 |
| NC(=O)Nc1nn(-c2ccc(-c3ccc(C4CCCCC4)cc3)cc2)cc1C(N)=O [Example 140] | > 20 |
| NC(=O)Nc1cn(-c2cccc(-c3ccc(Cl)cc3)c2)nc1C(N)=O [Example 348, 4-[(aminocarbonyl)amino]-1-(4′-chloro-1,1′-biphenyl-3-yl)-1H-pyrazole-3-carboxamide] | > 20 |

| SMILES | IC50 [µM] |
| --- | --- |
| NC(=O)Nc1cn(-c2ccc(-c3cc(F)ccc3OCc3ncco3)cc2)nc1C(N)=O [Example 255, 4-[(aminocarbonyl)amino]-1-[5′-fluoro-2′-(1,3-oxazol-2-ylmethoxy)-1,1′-biphenyl-4-yl]-1H-pyrazole-3-carboxamide] | 0.762 |
| CCCCc1ccc(-c2cccc(-n3cc(NC(N)=O)c(C(N)=O)n3)c2)cc1 [Example 364, 4-[(aminocarbonyl)amino]-1-(4′-butyl-1,1′-biphenyl-3-yl)-1H-pyrazole-3-carboxamide] | 16.2 |
| NC(=O)Nc1cn(-c2cccc(-c3cccc(O)c3)c2)nc1C(N)=O [Example 72, 4-[(aminocarbonyl)amino]-1-(3′-hydroxy-1,1′-biphenyl-3-yl)-1H-pyrazole-3-carboxamide] | 0.44 |
| NC(=O)Nc1cn(-c2ccc(S(=O)(=O)c3ccc(F)cc3)cc2F)nc1C(N)=O [Example 378, 1-(1-(4-(4-fluorophenylsulfonyl)-2-fluorophenyl)-3-carbamoyl-1H-pyrazol-4-yl)urea] | 0.315 |
| NC(=O)c1nn(-c2cccc(Br)c2)cc1NC(N)=S [Example 12, 4-[(aminocarbonothioyl)amino]-1-(3-bromophenyl)-1H-pyrazole-3-carboxamide] | 1.43 |
| NC(=O)Nc1cn(-c2ccc(-c3cccc(OCc4ccccn4)c3)cc2)nc1C(N)=O [Example 168, 4-[(aminocarbonyl)amino]-1-[3′-(pyridin-2-ylmethoxy)-1,1′-biphenyl-4-yl]-1H-pyrazole-3-carboxamide] | 1.99 |
| CN1CCOc2cc(-c3cccc(-n4cc(NC(N)=O)c(C(N)=O)n4)c3)ccc21 [Example 64, 4-[(aminocarbonyl)amino]-1-[3-(4-methyl-3,4-dihydro-2H-1,4-benzoxazin-7-yl)phenyl]-1H-pyrazole-3-carboxamide] | 6.08 |
| NC(=O)Nc1cn(-c2ccc3ccccc3c2)nc1C(N)=O [Example 219, 4-[(aminocarbonyl)amino]-1-(2-naphthyl)-1H-pyrazole-3-carboxamide] | 0.175 |
| NC(=O)Nc1cn(-c2cccc(-c3ccc(Cl)cc3Cl)c2)nc1C(N)=O [Example 369, 4-[(aminocarbonyl)amino]-1-(2′,4′-dichloro-1,1′-biphenyl-3-yl)-1H-pyrazole-3-carboxamide] | 16.7 |
| Cc1cccc(-c2ccc(-n3cc(NC(N)=O)c(C(N)=O)n3)cc2)c1 [Example 102, 4-[(aminocarbonyl)amino]-1-(3′-methyl-1,1′-biphenyl-4-yl)-1H-pyrazole-3-carboxamide] | 2.82 |
| CC(=O)Nc1cccc(-c2cccc(-n3cc(NC(N)=O)c(C(N)=O)n3)c2)c1 [Example 76, 1-[3′-(acetylamino)-1,1′-biphenyl-3-yl]-4-[(aminocarbonyl)amino]-1H-pyrazole-3-carboxamide] | 0.9 |
| NC(=O)Nc1cn(-c2ccc(-c3ccccc3O)c(Cl)c2)nc1C(N)=O [Example 223, 4-[(aminocarbonyl)amino]-1-(2-chloro-2′-hydroxy-1,1′-biphenyl-4-yl)-1H-pyrazole-3-carboxamide] | 1.15 |
| NC(=O)Nc1cn(-c2ccc(F)cc2)nc1C(N)=O [Example 212, 4-[(aminocarbonyl)amino]-1-(4-fluorophenyl)-1H-pyrazole-3-carboxamide] | 0.844 |
| CC(C)Cc1ccc(-c2ccc(-n3cc(C(N)=O)c(NC(N)=O)n3)cc2)cc1 [Example 127] | > 20 |
| NC(=O)Nc1cn(-c2ccc(Sc3ccc(O)cc3)cc2)nc1C(N)=O [Example 199, 1-(1-(4-(4-hydroxyphenylthio)phenyl)-3-carbamoyl-1H-pyrazol-4-yl)urea] | 6.56 |
| NC(=O)Nc1cn(-c2cccc(-c3cccc(C(=O)O)c3)c2)nc1C(N)=O [Example 73, 3′-{3-(aminocarbonyl)-4-[(aminocarbonyl)amino]-1H-pyrazol-1-yl}-1,1′-biphenyl-3-carboxylic acid] | 8.03 |
| NC(=O)Nc1cn(-c2ccc(-c3cccc(OCc4cccnc4)c3)cc2)nc1C(N)=O [Example 170, 4-[(aminocarbonyl)amino]-1-[3′-(pyridin-3-ylmethoxy)-1,1′-biphenyl-4-yl]-1H-pyrazole-3-carboxamide] | 1.58 |
